Key:
[1] = target: HUVEC (putative LTD4 receptors); experiment: 3H-LXA4 specific binding to HUVEC; set-up: species or system human
Procedure: Cell cultures and differentiation. HL-60 cells were seeded in RPMI medium supplemented with 100 U/ml penicillin, 100 μg/ml streptomycin, and 10% fetal calf serum (Hyclone, Logan, Utah), incubated at 37° C. with 5% CO2 atmosphere in 250 ml flasks. […] Human umbilical vein endothelial cells (HUVEC) maintained in culture third passage were obtained from Dr. M. Gimbrone (Brigham and Women's Hospital Department of Pathology).
Binding experiments with HUVEC cells were performed in 12 well plates with 3.5×10^5 cells/well. After 10 min, wells were washed twice with PBS and cell-associated label was recovered by adding glacial acetic acid (0.5 ml). Results obtained from these assays were submitted for further analysis using the Ligand program (Elsevier-Biosoft, Cambridge, UK).

[2] = target: T1, LXA4 specific binding sites of differentiated HL-60 cells (Homo sapiens, UniProt P25090); experiment: 3H-LXA4 specific binding to differentiated HL-60 cells
T1 construct: endogenous in cells; host or cells: HL-60 cells differentiated with DMSO, retinoic acid or PMA; intact cells
T1 sequence (P25090 1-351): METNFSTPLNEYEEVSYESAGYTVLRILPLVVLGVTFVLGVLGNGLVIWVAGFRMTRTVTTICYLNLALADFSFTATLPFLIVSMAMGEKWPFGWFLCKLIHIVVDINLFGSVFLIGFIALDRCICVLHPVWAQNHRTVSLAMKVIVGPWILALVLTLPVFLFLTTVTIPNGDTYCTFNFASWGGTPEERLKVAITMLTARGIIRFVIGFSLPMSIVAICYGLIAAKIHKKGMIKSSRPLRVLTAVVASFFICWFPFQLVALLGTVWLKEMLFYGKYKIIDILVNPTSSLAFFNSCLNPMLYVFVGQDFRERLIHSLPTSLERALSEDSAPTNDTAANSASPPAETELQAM
Procedure: Preparation of [11,12-^3H]LXA4. Tritiation of 11,12-acetylenic LXA4 methyl ester was carried out under a custom tritiation service (NET-259:92-2326) by New England Nuclear (Boston, Mass.). Briefly, 11,12-acetylene methyl ester was characterized by UV absorbance and reverse-phase HPLC as in (Nicolaou, K. C. et al. (1985) J. Am. Chem. Soc. 107:7515) and exposed to tritium atmosphere in methylene chloride at room temperature. This incubation was stirred in the presence of Lindlar catalyst (1.0 mg from Fluka Chemicals) for˜1 h. The resulting mixture was stored in methanol and isolated using RP-HPLC. Tritiated products were chromatographed as methyl esters utilizing a gradient HPLC system equipped with a photodiode array rapid spectral detector (Serhan, C. N., Methods in Enzymology: Arachidonate Related Lipid Mediators, in Murphy R. C., Fitzpatrick, F. (eds.), vol. 187. Orlando, Fla., Academic, (1990), p. 167). This mixture contained both [11,12-^3H]LXA4 and [11,12-^3H]-11-trans-LXA4 methyl esters (˜1:3 ratio) as determined by coelution with synthetic standards. After RP-HPLC, fractions containing [11,12-^3H]LXA4 were collected, and extracted into ethyl acetate. The free acid was prepared by LiOH saponification (Fiore, S. et al. (1992) J. Biol. Chem. 267:16168). Material from these fractions, when injected into UV-electrochemical detection HPLC, gave greater than 90% of radioactivity associated with a tetraene-containing product that coeluted with synthetic LXA4. Materials that eluted with the retention time of authentic LXA4 in two HPLC systems were taken for binding experiments. The specific activity calculated for [11,12-^3H]LXA4 was 40.5 Ci/mmole.
Cell cultures and differentiation. HL-60 cells were seeded in RPMI medium supplemented with 100 U/ml penicillin, 100 μg/ml streptomycin, and 10% fetal calf serum (Hyclone, Logan, Utah), incubated at 37° C. with 5% CO2 atmosphere in 250 ml flasks. Individual flasks containing ˜[…] next received dimethyl sulfoxide (DMSO) (1.12% v/v, 120 h) or retinoic acid (RA) (1 μM, 120 h) or phorbol myristate acetate (PMA) (20 nM, 48 h). Before performing binding assays, cells were washed twice in phosphate buffered saline (PBS), Ca^2+- and Mg^2+-free, enumerated and suspended at 20×10^6 cells/ml in Tris buffer (10 mM), pH 7.4 (Fiore, S. et al.(1992) J. Biol. Chem. 267:16168). Nitro blue tetrazolium reduction was performed to monitor induction of polymorphonuclear phenotype as in (Imaizumi, M. and Breitman, T. R. (1986) Blood 67:1273), and cell adherence was determined for induction of macrophage-like phenotype (Collins, S. J. (1987) Blood 70:1273). Human umbilical vein endothelial cells (HUVEC) maintained in culture third passage were obtained from Dr. M. Gimbrone (Brigham and Women's Hospital Department of Pathology).
Ligand binding. ^3H-LXA4 and ^3H-LTB4 binding was performed essentially as in Fiore, S. et al.(1992) J. Biol. Chem. 267:16168. After suspending cells in Tris buffer 10 mM (pH 7.4, Ca^2+ 2.5 mM, Mg^2+ 1.2 mM), aliquots (0.5 ml) were incubated (20 min at 4° C.) with ^3H- ligands alone (0.3 nM) or in the presence of increasing concentrations of homoligands or other compounds (3-300 nM). The incubations were rapidly centrifuged (60 sec, 12,000 g) on silicon oil (d=1.028), and cell-associated radioactivity was determined by liquid scintillation counting (Wallac 1409, Pharmacia, Piscataway, N.J.). Binding experiments with HUVEC cells were performed in 12 well plates with 3.5×10^5 cells/well. After 10 min, wells were washed twice with PBS and cell-associated label was recovered by adding glacial acetic acid (0.5 ml). Results obtained from these assays were submitted for further analysis using the Ligand program (Elsevier-Biosoft, Cambridge, UK).

[3] = tested on: A549 cells; experiment: 15-HETE generation by IL-1β-treated A549 cells; assay type: cell-based, human; details: permeabilized IL-1β-treated A549 cells, arachidonic acid 20 μM
Procedure: FIG. 3 is a graph showing the relative chiralities of 15-HETE triggered by ASA. A549 cells (10^7 cells per flask) were exposed to IL-1β (1 ng/ml) for 24 h, treated with vehicle (0.1% vol/vol ethanol) (□) or ASA (▪) for 20 min and then incubated (30 min, 37° C.) in HBSS containing arachidonic acid (20 μM) and A23187 (5 μM). Products were chromatographed by RP-HPLC (as in FIG. 1B) and the region containing 15-HETE was collected, extracted with chloroform and treated with diazomethane. Chiral analysis was performed with a Bakerbond DNBPG (see Methods for details). Results are representative of two separate experiments showing similar results.
In incubations involving permeabilized A549 cells (prepared by a rapid freeze-thaw cycle), IL-1β-treated (1 ng/ml, 24 h) A549 cells (1.5×10^6 cells/ml) were pretreated for 20 min with either vehicle (0.1% EtOH), ASA (500 (M; used throughout), 5 (M 17-ODYA, an inhibitor of cytochrome P450, (Muerhoff A. S., et al. (1989) Prostaglandin and fatty acid ω and (ω-1)-oxidation in rabbit lung: acetylenic fatty acid mechanism-based inactivators as specific inhibitors. J Biol.Chem. 244: 749-756.), or […] Rev 5901 isomer, a 5-LO inhibitor, subjected to two cycles of rapid freezing in a dry ice-acetone bath and thawing to room temperature (full cycle <20 min), and incubated with arachidonic acid ([…] for 20 min at 37° C. in 4 ml of DPBS^2+. In experiments involving radiolabeled arachidonic acid, incubations were initiated with the addition of [^3H]-arachidonic acid (0.25 (Ci/ml) plus unlabeled arachidonic acid ([…] for 20 min at 37° C.
For time-course experiments involving the generation of 15-HETE from endogenous sources (see FIG. 2B), intact A549 cells were exposed to IL-1β (1 ng/ml) for up to 48 h and then treated with vehicle (containing 0.1% EtOH) or ASA for 20 min followed by addition of ionophore A23187 (5 μM) in 4 ml of HBSS for 30 min at 37° C.
The monohydroxy eicosanoids (i. e. 5-, 12- and 15-HETE) from A549 cells were analyzed using a Ultrasphere-ODS column (5 μm, 4.6 mm×25 cm) (Beckman Instruments, Fullerton, Calif.) was eluted with MeOH/H2O/acetic acid (65:35:0.01; v/v/v) as phase one (t0-20 min), and a linear gradient with MeOH/acetic acid (99.9:0.1, v/v) as phase two (20-45 min) at a flow rate of 1.0 ml/min. The R- and S-enantiomers of 15-HETE were resolved and identified using a chiral HPLC system similar to that reported by Hawkins et al. (1988). […] When indicated, generation of 15-HETE from endogenous sources was monitored by radioimmunoassay (RIA). […]

[3H]C(/C=C/C=C/[C@@H](O)[C@@H](O)CCCC(=O)O)=C([3H])/C=C/[C@@H](O)CCCCC [[11,12-^3H]LXA4]
Kd [1]: 11 ± 2.6 nM | Kd ([2]; isotherm binding, 4° C., 10 min, 0.1-30 nM): 0.6 ± 0.3 nM

C#CCCCCCCCCCCCCCCCC(=O)O [17-ODYA, 17-octadecaynoic acid]
reduction in 15-HETE [3]: ~50%

CCCCC/C=C\C\C=C/C=C/C=C/[C@@H](SC[C@H](N)C(=O)NCC(=O)O)[C@@H](O)CCCC(=O)O [LTD4]
competition of specific 3H-LXA4 binding [1]: effective in competing

O=C(O)CCS[C@H](c1ccccc1CCCCCCCCc1ccccc1)[C@@H](O)C(=O)O [SKF 104353]
competition of specific 3H-LXA4 binding [1]: effective in competing | displacement of 3H-LXA4 specific binding ([2]; competition, competitor 300 nM where printed): did not displace
